This data set in a line: UV-VIS spectroscopy during titration with sodium hydroxide (pH dependence of absorbance). Type of data set: physicochemical. As to conditions: 0.25 g in 100 mL deionized water, titrated with 0.1 M sodium hydroxide, UV-VIS at every 0.5 pH. The method, then: FIG. 8 comprises a graph illustrating maximum absorbance as a function of pH for a compound of the invention.
Triguaiacol (0.25 g, Example 4) was dissolved in 100 mL of deionized water. The mixture was titrated with 0.1 M sodium hydroxide solution. At every 0.5 pH, UV-VIS spectroscopy was performed on a portion of the mixture. The wavelength in the absorbance spectrum where the absorbance is at a maximum was measured.

Take `COc1cc(C(c2ccc(O)c(OC)c2)c2ccc(O)c(OC)c2)ccc1O` [Triguaiacol, 4,4′,4″-methanetriyltris(2-methoxyphenol)]: the “wavelength in the absorbance spectrum where the absorbance is at a maximum” value is on record as “decrease with increasing pH”.
